The source of these data is patent US7956077B2, “2-{-3,′2-(phenyl)-oxazol-4-ylmethoxyl-cyclohexyl methoxy}-propionic acid derivatives used as peroxisome proliferator-activated receptor (PPAR) ligands for the treatment of hyperlipidemia and diabetes” (Sanofi-Aventis Deutschland GmbH, priority 2004, dated 2011).

Where only a bound is given, the exact number is not on record here.

One assay addresses T1, human PPARalpha (Homo sapiens, UniProt Q07869).
T1 construct: human PPARalpha receptor (amino acids S167-Y468); expressed in transfected cells; host or cells: HEK cells, stably transfected (pcDNA3 construct)
T1 sequence (Q07869 167-468): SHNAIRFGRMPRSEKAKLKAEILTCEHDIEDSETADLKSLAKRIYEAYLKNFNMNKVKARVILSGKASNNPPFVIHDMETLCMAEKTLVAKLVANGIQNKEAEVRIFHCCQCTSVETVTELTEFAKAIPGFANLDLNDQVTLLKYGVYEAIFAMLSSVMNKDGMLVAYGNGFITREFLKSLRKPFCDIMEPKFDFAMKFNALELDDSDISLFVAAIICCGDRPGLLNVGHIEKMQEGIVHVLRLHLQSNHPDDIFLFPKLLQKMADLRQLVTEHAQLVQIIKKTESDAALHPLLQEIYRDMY
As to the kind of experiment: Cellular PPARalpha assay (stably transfected HEK luciferase reporter cell line). Particulars: PPARalpha reporter cell line (HEK, GR-GAL4-humanPPARalpha-LBD), 24 h incubation. Type of assay: cell-based. On the procedure: Determination of EC50 Values of PPAR Agonists in the Cellular PPARalpha Assay
The potency of substances which bind to human PPARalpha and activate it in an agonistic manner is analyzed using a stably transfected HEK cell line (HEK=human embryo kidney) which is referred to here as PPARalpha reporter cell line. It contains two genetic elements, a luciferase reporter element (pdeltaM-GAL4-Luc-Zeo) and a PPARalpha fusion protein (GR-GAL4-humanPPARalpha-LBD) which mediates expression of the luciferase reporter element depending on a PPARalpha ligand. The stably and constitutively expressed fusion protein GR-GAL4-humanPPARalpha-LBD binds in the cell nucleus of the PPARalpha reporter cell line via the GAL4 protein portion to the GAL4 DNA binding motifs 5′-upstream of the luciferase reporter element which is stably integrated in the genome of the cell line. There is only little expression of the luciferase reporter gene without addition of a PPARalpha ligand if fatty acid-depleted fetal calf serum (cs-FCS) is used in the assay. PPARalpha ligands bind and activate the PPARalpha fusion protein and thereby bring about expression of the luciferase reporter gene. The luciferase which is formed can be detected by means of chemiluminescence via an appropriate substrate.
Construction of the Cell Line
The PPARalpha reporter cell line was prepared in two steps. Firstly, the luciferase reporter element was constructed and stably transfected into HEK cells. For this purpose, five binding sites of the yeast transcription factor GAL4 (in each case 5′-CGGAGTACTGTCCTCCGAG-3′) were cloned in 5′-upstream of a 68 bp-long minimal MMTV promoter (Genbank Accession # V01175). The minimal MMTV promoter section contains a CCAAT box and a TATA element in order to enable efficient transcription by RNA polymerase II. The cloning and sequencing of the GAL4-MMTV construct took place in analogy to the description of Sambrook J. et. al. (Molecular cloning, Cold Spring Harbor Laboratory Press, 1989). Then the complete Photinus pyralis luciferase gene (Genbank Accession # M15077) was cloned in 3′-downstream of the GAL4-MMTV element. After sequencing, the luciferase reporter element consisting of five GAL4 binding sites, MMTV promoter and luciferase gene was subcloned into a plasmid which confers zeozin resistance in order to obtain the plasmid pdeltaM-GAL4-Luc-Zeo. This vector was transfected into HEK cells in accordance with the statements in Ausubel, F. M. et al. (Current protocols in molecular biology, Vol. 1-3, John Wiley & Sons, Inc., 1995).
In a second step, the PPARalpha fusion protein (GR-GAL4-humanPPARalpha-LBD) was introduced into the stable cell clone described. For this purpose, initially the cDNA coding for the N-terminal 76 amino acids of the glucocorticoid receptor (Genbank Accession # P04150) was linked to the cDNA section coding for amino acids 1-147 of the yeast transcription factor GAL4 (Genbank Accession # P04386). The cDNA of the ligand-binding domain of the human PPARalpha receptor (amino acids S167-Y468; Genbank Accession # S74349) was cloned in at the 3′ end of this GR-GAL4 construct. The fusion construct prepared in this way (GR-GAL4-humanPPARalpha-LBD) was subcloned into the plasmid pcDNA3 (from Invitrogen) in order to enable constitutive expression therein by the cytomegalovirus promoter. This plasmid was linearized with a restriction endonuclease and stably transfected into the previously described cell clone containing the luciferase reporter element. The finished PPARalpha reporter cell line which contains a luciferase reporter element and constitutively expresses the PPARalpha fusion protein (GR-GAL4-humanPPARalpha-LBD) was isolated by selection with zeozin (0.5 mg/ml) and G418 (0.5 mg/ml).
The activity of PPARalpha agonists is determined in a 3-day assay which is described below: […]
In general terms: Reporter assays use an easily measured gene product as a stand-in for the process of interest.

For another assay, the target named is T2, human PPARgamma (Homo sapiens, UniProt P37231).
T2 construct: human PPARgamma receptor (amino acids 1152-Y475); expressed in transfected cells; host or cells: HEK cells, transiently transfected with pcDNA3-GAL4-humanPPARgammaLBD
T2 sequence (P37231 182-477 isoform P37231-2 limits assumed): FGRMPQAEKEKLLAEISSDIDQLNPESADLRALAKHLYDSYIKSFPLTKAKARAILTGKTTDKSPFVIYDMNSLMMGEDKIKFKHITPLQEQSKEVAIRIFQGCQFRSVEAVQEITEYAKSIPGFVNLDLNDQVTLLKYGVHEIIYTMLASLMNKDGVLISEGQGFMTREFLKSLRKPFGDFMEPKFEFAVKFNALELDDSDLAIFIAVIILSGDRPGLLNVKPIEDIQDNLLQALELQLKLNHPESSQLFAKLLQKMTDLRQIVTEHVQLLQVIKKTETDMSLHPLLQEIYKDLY
Description: Cellular PPARgamma assay (transiently transfected HEK cells, luciferase reporter). Type of assay: cell-based. Particulars: HEK cells transiently transfected with GAL4-humanPPARgammaLBD, 48 h incubation. From the text: Determination of EC50 Values of PPAR Agonists in the Cellular PPARgamma Assay
A transient transfection system is employed to determine the cellular PPARgamma activity of PPAR agonists. It is based on the use of a luciferase reporter plasmid (pGL3basic-5×GAL4-TK) and of a PPARgamma expression plasmid (pcDNA3-GAL4-humanPPARgammaLBD). Both plasmids are transiently transfected into human mbryonic kidney cells (HEK cells). There is then expression in these cells of the usion protein GAL4-humanPPARgammaLBD which binds to the GAL4 binding sites of he reporter plasmid. In the presence of a PPARgamma-active ligand, the activated usion protein GAL4-humanPPARgammaLBD induces expression of the luciferase reporter gene, which can be detected in the form of a chemiluminescence signal after addition of a luciferase substrate. As a difference from the stably transfected PPARalpha reporter cell line, in the cellular PPARgamma assay the two components (luciferase reporter plasmid and PPARgamma expression plasmid) are transiently transfected into HEK cells because stable and permanent expression of the PPARgamma fusion protein is cytotoxic.
Construction of the Plasmids
The luciferase reporter plasmid pGL3basic-5×GAL4-TK is based on the vector pGL3basic from Promega. The reporter plasmid is prepared by cloning five binding sites of the yeast transcription factor GAL4 (each binding site with the sequence 5′-CTCGGAGGACAGTACTCCG-3′), together with a 160 bp-long thymidine kinase promoter section (Genbank Accession # AF027128) 5′-upstream into pGL3basic. 3′-downstream of the thymidine kinase promoter is the complete luciferase gene from Photinus pyralis (Genbank Accession # M15077), which is already a constituent of the plasmid pGL3basic used. The cloning and sequencing of the reporter plasmid pGL3basic-5×GAL4-TK took place in analogy to the description in Sambrook J. et. al. (Molecular cloning, Cold Spring Harbor Laboratory Press, 1989).
The PPARgamma expression plasmid pcDNA3-GAL4-humanPPARgammaLBD was prepared by first cloning the cDNA coding for amino acids 1-147 of the yeast transcription factor GAL4 (Genbank Accession # P04386) into the plasmid pcDNA3 (from Invitrogen) 3′-downstream of the cytomegalovirus promoter. Subsequently, the cDNA of the ligand-binding domain (LBD) of the human PPARgamma receptor (amino acids 1152-Y475; Accession # g1480099) 3′-downstream of the GAL4 DNA binding domain was cloned. Cloning and sequencing of the PPARgamma expression plasmid pcDNA3-GAL4-humanPPARgammaLBD again took place in analogy to the description in Sambrook J. et. al. (Molecular cloning, Cold Spring Harbor Laboratory Press, 1989). Besides the luciferase reporter plasmid pGL3basic-5×GAL4-TK and the PPARgamma expression plasmid pcDNA3-GAL4-humanPPARgammaLBD, also used for the cellular PPARgamma assay are the reference plasmid pRL-CMV (from Promega) and the plasmid pBluescript SK(+) from Stratagene. All four plasmids were prepared using a plasmid preparation kit from Qiagen, which ensured a plasmid quality with a minimal endotoxin content, before transfection into HEK cells.
The activity of PPARgamma agonists is determined in a 4-day assay which is described below. Before the transfection, HEK cells are cultivated in DMEM medium (#41965-039, Invitrogen) which is mixed with the following additions: 10% FCS (#16000-044, Invitrogen), 1% penicillin-streptomycin solution (#15140-122, Invitrogen) and 2 mM L-glutamine (#25030-024, Invitrogen).
Firstly, solution A, a transfection mixture which contains all four plasmids previously described in addition to DMEM medium, is prepared. […]

As for `CCc1oc(-c2ccc(C(C)C)cc2)nc1CO[C@H]1CCC[C@@H](COC(C)(Cc2ccccc2)C(=O)O)C1` (mixture of isomers) [Example 20, 2-{(1R,3S)-3-[5-Ethyl-2-(4-isopropylphenyl)oxazol-4-ylmethoxy]cyclohexylmethoxy}-2-methyl-3-phenylpropionic acid], the EC50 (usually the concentration needed to bring the measured effect to its halfway point) at human PPARalpha was 0.54 nM; at human PPARgamma, 170 nM.

As to `Cc1oc(-c2ccc3ccccc3c2)nc1CO[C@H]1CCC[C@@H](COC(C)(Cc2ccccc2)C(=O)O)C1` (mixture of isomers) [Example 21, 2-Methyl-2-{(1R,3S)-3-[5-methyl-2-(naphth-2-yl)oxazol-4-ylmethoxy]-cyclohexyimethoxy}-3-phenylpropionic acid], the concentration for a half-maximal effect (EC50) at human PPARalpha stood at 5.8 nM; on human PPARgamma it was 600 nM.

For `Cc1oc(-c2ccc(F)cc2)nc1COC1CCCC(COC(C)(C)C(=O)O)C1` (centres unmarked) [**], the EC50 on human PPARalpha was 4.5 nM; at human PPARgamma, above 10000 nM.

As to `CCc1oc(-c2cccc(OC)c2)nc1CO[C@H]1CCC[C@@H](COC(C)(C)C(=O)O)C1` [Example 1, 2-{(1R,3S)-3-[5-ethyl-2-(3-methoxyphenyl)oxazol-4-ylmethoxy]cyclohexylmethoxy}-2-methylpropionic acid], the figures for the half-maximal effective concentration (EC50) at human PPARalpha and at human PPARgamma were 45 nM and 930 nM, respectively.

`CCc1oc(-c2ccc(C)cc2)nc1CO[C@H]1CCC[C@@H](COC(C)(C)C(=O)O)C1` [Example 2, 2-[(1R,3S)-3-(5-Ethyl-2-p-tolyloxazol-4-ylmethoxy)cyclohexylmethoxy]-2-methylpropionic acid]: the half-maximal effective concentration (EC50) at human PPARalpha was found to be 3.5 nM; at human PPARgamma it was 2900 nM.

Consider `CCc1oc(-c2ccc(CC(C)C)cc2)nc1CO[C@H]1CCC[C@@H](COC(C)(C)C(=O)O)C1` [Example 3, 2-{(1R,3S)-3-[5-Ethyl-2-(4-isobutylphenyl)-oxazol-4-ylmethoxy]cyclohexylmethoxy}-2-methylpropionic acid], for which the EC50 on human PPARalpha was determined as 19 nM; at human PPARgamma it was 670 nM.

`CCc1oc(-c2ccc3ccccc3c2)nc1CO[C@H]1CCC[C@@H](COC(C)(C)C(=O)O)C1` [Example 4, 2-{(1R,3S)-3-[5-Ethyl-2-(napth-2-yl)oxazol-4-ylmethoxy]cyclohexylmethoxy}-2-methylpropionic acid]: the EC50 on human PPARalpha was determined as 2 nM; on human PPARgamma, 1100 nM.

On to `CCc1oc(-c2cccc(C(F)(F)F)c2)nc1CO[C@H]1CCC[C@@H](COC(C)(C)C(=O)O)C1` [Example 5, 2-{(1R,3S)-3-[5-Ethyl-2-(3-trifluoromethylphenyl)oxazol-4-ylmethoxy]cyclo-hexylmethoxy}-2-methylpropionic acid], for which the values for the EC50 on human PPARalpha and on human PPARgamma were 12 nM and 1500 nM, respectively.

On to `Cc1oc(-c2ccc3ccccc3c2)nc1CO[C@H]1CCC[C@@H](COC(C)(C)C(=O)O)C1` [Example 7, 2-Methyl-2-{(1R,3S)-3-[5-methyl-2-(naphth-2-yl)oxazol-4-ylmethoxy]cyclo-hexylmethoxy}propionic acid], for which the EC50 on human PPARalpha was determined as 1.2 nM; at human PPARgamma, 2600 nM.

For `COc1cccc(-c2nc(CO[C@H]3CCC[C@@H](COC(C)(C)C(=O)O)C3)c(C(C)C)o2)c1` [Example 9, 2-{(1R,3S)-3-[5-lsopropyl-2-(3-methoxypheny)oxazol-4-ylmethoxy]cyclo-hexylmethoxy}-2-methyl propionic acid], the EC50 at human PPARalpha is 320 nM; at human PPARgamma, 390 nM.
